Experimental findings from US20250206760A1, “NITROGEN-CONTAINING HETEROCYCLIC COMPOUND, PREPARATION METHOD THEREFOR, AND PHARMACEUTICAL APPLICATION THEREOF” (Jiangsu Hengrui Pharmaceuticals Co., Ltd., priority 2022, published 2025) are described below.

Type in all cases: cell-based
In assay [1] the test system is HER2 wild-type Ba/F3 cells. The assay can be described thus: Ba/F3 cell proliferation assay, HER2 wild-type. The settings on record: Mus musculus, BaF3, 72 h, Celltiter-Glo cell viability; for GI50: read-out: HER2 WT/BaF3 GI50; for Emax: read-out: HER2 WT/BaF3 Imax %. The protocol: (§1) EGFR wild-type Ba/F3 cells (Cobioer, Cat. No. CBP73110) in the logarithmic growth phase were seeded into a 96-well plate at 2.5×10^3 cells/[…] in a growth medium, and HER2 wild-type Ba/F3 cells (Cobioer, Cat. No. CBP73110) or HER2 A775_G776insYVMA mutant Ba/F3 (Cobioer, Cat. No. CBP73184) in the logarithmic growth phase were seeded into a 96-well plate at 5×10^3 cells/100 μL in a growth medium.
(§2) The plates were placed in a cell incubator at 37° C. overnight. The compound diluted in 3-fold gradient with a medium was added to the plates at 100 μL/well the next day. All treatments were performed in triplicate. The plates were cultured in the cell incubator at 37° C. for another 72 h. Celltiter-Glo Luminescent cell viability assay was performed.
(§3) The cell proliferation rate corresponding to each well was calculated according to the following formula: proliferation %=(test compound well G3-GO average value)/(DMSO control well G3 average value -GO average value)×100. According to the corresponding proliferation rate and concentration of each gradient concentration well, a gradient curve of cell proliferation was fitted using Prism Graphpad software, and GI50 (GI50 is defined as the concentration of a compound corresponding to the cell proliferation inhibition rate of 50%) of the compound was calculated.
For orientation: Cellular ATP, detected with luciferase, serves as a proxy for viable cell number.

Assay [2] concerns HER2 A775_G776insYVMA mutant Ba/F3. The assay can be described thus: Ba/F3 cell proliferation assay, HER2 A775_G776insYVMA mutant. The note with it: Mus musculus, BaF3, 72 h, Celltiter-Glo cell viability; for GI50: read-out: HER2 A775_G776 ins YVMA/BaF3 GI50; for Emax: read-out: HER2 A775_G776 ins YVMA/BaF3 Imax %. The protocol:
as §1, §2, §3

In assay [3] the test system is EGFR wild-type Ba/F3 cells. The assay can be described thus: Ba/F3 cell proliferation assay, EGFR wild-type. The note with it: 72 h, Celltiter-Glo cell viability; for GI50: Mus musculus, BaF3, read-out: EGFR WT/BaF3 GI50. The protocol: as §1, §2, §3

A value given as a limit tells only on which side of the number the result lay.

As for `C=CC(=O)N1[C@@H]2CC[C@H]1C[C@@H](Oc1ccc3ncnc(Nc4ccc(Oc5ccn6ncnc6c5)c(C)c4)c3c1)C2` [Example 1, 1-(endo-3-((4-((4-([1,2,4]Triazolo[1,5-a]pyridin-7-yloxy)-3-methylphenyl)amino)quinazolin-6-yl)oxy)-8-azabicyclo[3.2.1]octan-8-yl)prop-2-en-1-one], the GI50 in assay [1] came out at 4.1 nM; in assay [2], 3.4 nM; in assay [3] it was 3.74 µM. Also, the Emax in assay [1] and in assay [2] was 100% in each case. In addition, the “EGFR WT/BaF3 Imax %” value in assay [3] is given as 97%.
Regarding `C=CC(=O)N1[C@@H]2CC[C@H]1C[C@@H](Oc1ccc3ncnc(Nc4ccc(Oc5ccc6c(c5)ncn6C)c(C)c4)c3c1)C2` [Example 2, 1-(endo-3-((4-((3-Methyl-4-((1-methyl-1H-benzo[d]imidazol-5-yl)oxy)phenyl)amino)quinazolin-6-yl)oxy)-8-azabicyclo[3.2.1]octan-8-yl)prop-2-en-1-one], in assay [1], the GI50 was 18.9 nM and the Emax was 100%. In assay [2], the GI50 worked out at 24 nM and the Emax was 100%. Further, in assay [3], the “EGFR WT/BaF3 Imax %” value stood at 99% and the GI50 was 2.3 µM.
With `C=CC(=O)N1[C@@H]2CC[C@H]1C[C@H](Oc1cc3c(Nc4ccc(Oc5ccn6ncnc6c5)c(C)c4)ncnc3cc1OC)C2` [Example 6, 1-(exo-3-((4-((4-([1,2,4]Triazolo[1,5-a]pyridin-7-yloxy)-3-methylphenyl)amino)-7-methoxyquinazolin-6-yl)oxy)-8-azabicyclo[3.2.1]octan-8-yl)prop-2-en-1-one], in assay [1], the GI50 worked out at 25.2 nM and the Emax came to 100%. For the same molecule, in assay [2], the GI50 was determined as 21.4 nM and the Emax was 100%.
As for `C=CC(=O)N1[C@@H]2CC[C@H]1C[C@H](Oc1ccc3ncnc(Nc4ccc(Oc5cc6ncnn6cn5)c(C)c4)c3c1)C2` [Example 8, 1-(exo-3-((4-((4-([1,2,4]Triazolo[1,5-c]pyrimidin-7-yloxy)-3-methylphenyl)amino)quinazolin-6-yl)oxy)-8-azabicyclo[3.2.1]octan-8-yl)prop-2-en-1-one], the GI50 turned out to be 6.3 nM in assay [1] and 15.7 nM in assay [2]. Moreover, the Emax in assay [1] and in assay [2] was 100% throughout.
With `C=CC(=O)N1[C@@H]2CC[C@H]1C[C@H](Oc1ccc3ncnc(Nc4ccc(Oc5ccn6ncnc6c5)c(C)c4)c3c1)C2` [Example 9, 1-(exo-3-((4-((4-([1,2,4]Triazolo[1,5-a]pyridin-7-yloxy)-3-methylphenyl)amino)quinazolin-6-yl)oxy)-8-azabicyclo[3.2.1]octan-8-yl)prop-2-en-1-one], the values for the GI50 in assay [1] and in assay [2] were 13.5 nM and 13.8 nM, respectively. For the same molecule, the Emax in assay [1] and in assay [2] was 100% in each case.
Regarding `C=CC(=O)N1[C@@H]2CC[C@H]1C[C@H](Oc1cc3c(Nc4ccc(Oc5ccn6ncnc6c5)c(C)c4F)ncnc3cc1OC)C2` [Example 13, 1-(exo-3-((4-((4-([1,2,4]Triazolo[1,5-a]pyridin-7-yloxy)-2-fluoro-3-methylphenyl)amino)-7-methoxyquinazolin-6-yl)oxy)-8-azabicyclo[3.2.1]octan-8-yl)prop-2-en-1-one], in assay [1], the GI50 was 4.8 nM and the Emax was 100%. Moreover, in assay [2], the GI50 turned out to be 8.2 nM and the Emax amounted to 100%.
As for `C=CC(=O)N1[C@@H]2CC[C@H]1C[C@H](Oc1cc3c(Nc4ccc(Oc5ccc6c(c5)ncn6C)c(C)c4F)ncnc3cc1OC)C2` [Example 15, 1-(exo-3-((4-((2-Fluoro-3-methyl-4-((1-methyl-1H-benzo[d]imidazol-5-yl)oxy)phenyl)amino)-7-methoxyquinazolin-6-yl)oxy)-8-azabicyclo[3.2.1]octan-8-yl)prop-2-en-1-one], in assay [1], the GI50 is 14.9 nM and the Emax was determined as 100%. For the same molecule, in assay [2], the GI50 was 19.4 nM and the Emax is 100%.
As to `C=CC(=O)N1[C@@H]2CC[C@H]1C[C@@H](Oc1cc3c(Nc4ccc(Oc5ccn6ncnc6c5)c(C)c4)ncnc3cn1)C2` [Example 16, 1-(endo-3-((4-((4-([1,2,4]Triazolo[1,5-a]pyridin-7-yloxy)-3-methylphenyl)amino)pyrido[3,4-d]pyrimidin-6-yl)oxy)-8-azabicyclo[3.2.1]octan-8-yl)prop-2-en-1-one], in assay [1], the GI50 amounted to 9 nM and the Emax worked out at 100%. Also, in assay [2], the GI50 was 15.7 nM and the Emax turned out to be 100%. Also, in assay [3], the “EGFR WT/BaF3 Imax %” value is given as 73% and the GI50 was 7.35 µM.
Take `C=CC(=O)N1[C@@H]2CC[C@H]1C[C@@H](Oc1cc3c(Nc4ccc(Oc5ccn6ncnc6c5)c(C)c4F)ncnc3cc1OCC)C2` [Example 17, 1-(endo-3-((4-((4-([1,2,4]Triazolo[1,5-a]pyridin-7-yloxy)-2-fluoro-3-methylphenyl)amino)-7-ethoxyquinazolin-6-yl)oxy)-8-azabicyclo[3.2.1]octan-8-yl)prop-2-en-1-one]: the GI50 in assay [1] came out at 5.1 nM; in assay [2] it was 13.9 nM. In addition, the Emax in assay [1] and in assay [2] was 100% throughout.
With `C=CC(=O)N1[C@@H]2CC[C@H]1C[C@H](Oc1ccc3ncnc(Nc4ccc(Oc5ccc6c(c5)ncn6C)c(C)c4F)c3c1)C2` [Example 19, 1-(exo-3-((4-((2-Fluoro-3-methyl-4-((1-methyl-1H-benzo[d]imidazol-5-yl)oxy)phenyl)amino)quinazolin-6-yl)oxy)-8-azabicyclo[3.2.1]octan-8-yl)prop-2-en-1-one], the results for the GI50 in assay [1] and in assay [2] were 14.9 nM and 27 nM, respectively. The Emax in assay [1] and in assay [2] was 100% in each case.
On to `C=CC(=O)N1[C@@H]2CC[C@H]1C[C@@H](Oc1cc3c(Nc4ccc(Oc5ccn6ncnc6c5)c(C)c4F)ncnc3cn1)C2` [Example 20, 1-(endo-3-((4-((4-([1,2,4]Triazolo[1,5-a]pyridin-7-yloxy)-2-fluoro-3-methylphenyl)amino)pyrido[3,4-d]pyrimidin-6-yl)oxy)-8-azabicyclo[3.2.1]octan-8-yl)prop-2-en-1-one], for which, in assay [1], the GI50 stood at 13.2 nM and the Emax came out at 100%. Moreover, in assay [2], the GI50 is 15.5 nM and the Emax is 100%. In assay [3], the “EGFR WT/BaF3 Imax %” value came out at 100% and the GI50 turned out to be 3.51 µM.
With `C=CC(=O)N1[C@@H]2CC[C@H]1C[C@H](Oc1cc3c(Nc4ccc(Oc5ccc6c(c5)ncn6C)c(C)c4F)ncnc3cn1)C2` [Example 27, 1-(exo-3-((4-((2-Fluoro-3-methyl-4-((1-methyl-1H-benzo[d]iimidazol-5-yl)oxy)phenyl)amino)pyrido[3,4-d]pyrimidin-6-yl)oxy)-8-azabicyclo[3.2.1]octan-8-yl)prop-2-en-1-one], in assay [1], the GI50 worked out at 12.5 nM and the Emax is 100%.
Regarding `C=CC(=O)N1[C@@H]2CC[C@H]1C[C@H](Oc1cc3c(Nc4ccc(Oc5ccc6c(c5)ncn6C)c(C)c4)ncnc3cn1)C2` [Example 28, 1-(exo-3-((4-((3-Methyl-4-((1-methyl-1H-benzo[d]iimidazol-5-yl)oxy)phenyl)amino)pyrido[3,4-d]pyrimidin-6-yl)oxy)-8-azabicyclo[3.2.1]octan-8-yl)prop-2-en-1-one], in assay [1], the GI50 was 18.1 nM and the Emax came out at 100%. In assay [3], the “EGFR WT/BaF3 Imax %” value was −1.76% and the GI50 was over 10 µM.
For the molecule `Cc1cc(Nc2ncnc3ccc(NC4=NC(C)(C)CO4)cc23)ccc1Oc1ccn2ncnc2c1` [Tucatinib, tucatinib, reference compound], the Emax in assay [2] was found to be 100%.
